Measured values published in PubChem BioAssay (NCI).
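Compound exposure: 48 hours, 5 concentrations, 96-well plates. At the TGI there is no net growth.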

What was measured:
Assay in all cases: NCI-60 cell line screen, 48 h
IGROV1 ovarian = test system: IGROV1 ovarian
CAKI-1 renal = test system: CAKI-1 renal
786-0 renal = test system: 786-0 renal
HCC-2998 colon = test system: HCC-2998 colon
CCRF-CEM leukemia = test system: CCRF-CEM leukemia
SK-OV-3 ovarian = test system: SK-OV-3 ovarian
NCI-H460 lung = test system: NCI-H460 lung
PC-3 prostate = test system: PC-3 prostate
NCI/ADR-RES ovarian = test system: NCI/ADR-RES ovarian
DU-145 prostate = test system: DU-145 prostate
MDA-MB-231 breast = test system: MDA-MB-231 breast
A549 NSCLC = test system: A549 NSCLC
SNB-75 CNS = test system: SNB-75 CNS
MDA-MB-435 = test system: MDA-MB-435
RXF 393 renal = test system: RXF 393 renal
HOP-62 NSCLC = test system: HOP-62 NSCLC
MCF7 breast = test system: MCF7 breast
BT-549 breast = test system: BT-549 breast
KM12 colon = test system: KM12 colon
A498 renal = test system: A498 renal
ACHN renal = test system: ACHN renal
SF-539 CNS = test system: SF-539 CNS
M14 melanoma = test system: M14 melanoma
SNB-19 CNS = test system: SNB-19 CNS
K-562 leukemia = test system: K-562 leukemia
HL-60(TB) leukemia = test system: HL-60(TB) leukemia
UO-31 renal = test system: UO-31 renal
UACC-62 melanoma = test system: UACC-62 melanoma
NCI-H522 lung = test system: NCI-H522 lung
SK-MEL-2 melanoma = test system: SK-MEL-2 melanoma
OVCAR-3 ovarian = test system: OVCAR-3 ovarian
U251 CNS = test system: U251 CNS
NCI-H226 lung = test system: NCI-H226 lung
EKVX NSCLC = test system: EKVX NSCLC
SW-620 colon = test system: SW-620 colon
HCT-116 colon = test system: HCT-116 colon
MOLT-4 leukemia = test system: MOLT-4 leukemia
TK-10 renal = test system: TK-10 renal
RPMI-8226 leukemia = test system: RPMI-8226 leukemia
NCI-H23 lung = test system: NCI-H23 lung
SK-MEL-5 melanoma = test system: SK-MEL-5 melanoma
COLO 205 colon = test system: COLO 205 colon
HCT-15 colon = test system: HCT-15 colon
MALME-3M melanoma = test system: MALME-3M melanoma
HS 578T breast = test system: HS 578T breast
UACC-257 melanoma = test system: UACC-257 melanoma
MDA-N = test system: MDA-N
OVCAR-5 ovarian = test system: OVCAR-5 ovarian
OVCAR-8 ovarian = test system: OVCAR-8 ovarian
HOP-92 NSCLC = test system: HOP-92 NSCLC
OVCAR-4 ovarian = test system: OVCAR-4 ovarian
HT29 colon = test system: HT29 colon
SN12C renal = test system: SN12C renal
SK-MEL-28 melanoma = test system: SK-MEL-28 melanoma
SR leukemia = test system: SR leukemia
SF-295 CNS = test system: SF-295 CNS
LOX IMVI melanoma = test system: LOX IMVI melanoma
SF-268 CNS = test system: SF-268 CNS

Work on `CC(C)CCC[C@@H](C)C1CCC2[C@@H]3CCC4CC(CCC=C(c5cc(Cl)c(OC(=O)c6ccccc6)c(C(=O)O)c5)c5cc(Cl)c(OC(=O)c6ccccc6)c(C(=O)O)c5)CC[C@]4(C)C3CC[C@@]21C` (some centres undefined) yielded a TGI (IGROV1 ovarian) of 94.3 µM, a TGI (CAKI-1 renal) of over 100 µM and a TGI (786-0 renal) of 75.2 µM. For the same compound, the TGI (HCC-2998 colon) was over 100 µM, the TGI (CCRF-CEM leukemia) was over 100 µM and the TGI (SK-OV-3 ovarian) was over 100 µM. It also gave a TGI (NCI-H460 lung) of over 100 µM, a TGI (PC-3 prostate) of over 100 µM and a TGI (NCI/ADR-RES ovarian) of over 100 µM. It also gave a TGI (DU-145 prostate) of over 100 µM, a TGI (MDA-MB-231 breast) of 26.5 µM and a TGI (A549 NSCLC) of over 100 µM. It also gave a TGI (SNB-75 CNS) of over 100 µM, a TGI (MDA-MB-435) of over 100 µM and a TGI (RXF 393 renal) of over 100 µM. It also gave a TGI (HOP-62 NSCLC) of over 100 µM, a TGI (MCF7 breast) of over 100 µM and a TGI (BT-549 breast) of over 100 µM. The TGI (KM12 colon) was over 100 µM, the TGI (A498 renal) was over 100 µM and the TGI (ACHN renal) was over 100 µM. It also gave a TGI (SF-539 CNS) of over 100 µM, a TGI (M14 melanoma) of 29.3 µM and a TGI (SNB-19 CNS) of over 100 µM. It also gave a TGI (K-562 leukemia) of over 100 µM, a TGI (HL-60(TB) leukemia) of over 100 µM and a TGI (UO-31 renal) of over 100 µM. The TGI (UACC-62 melanoma) was over 100 µM, the TGI (NCI-H522 lung) was over 100 µM and the TGI (SK-MEL-2 melanoma) was over 100 µM. It also gave a TGI (OVCAR-3 ovarian) of over 100 µM, a TGI (U251 CNS) of over 100 µM and a TGI (NCI-H226 lung) of over 100 µM. The TGI (EKVX NSCLC) was over 100 µM, the TGI (SW-620 colon) was over 100 µM and the TGI (HCT-116 colon) was over 100 µM. It also gave a TGI (MOLT-4 leukemia) of over 100 µM, a TGI (TK-10 renal) of over 100 µM and a TGI (RPMI-8226 leukemia) of over 100 µM. The TGI (NCI-H23 lung) was over 100 µM, the TGI (SK-MEL-5 melanoma) was 78.8 µM and the TGI (COLO 205 colon) was over 100 µM. It also gave a TGI (HCT-15 colon) of over 100 µM, a TGI (MALME-3M melanoma) of over 100 µM and a TGI (HS 578T breast) of over 100 µM. For the same compound, the TGI (UACC-257 melanoma) was over 100 µM, the TGI (MDA-N) was over 100 µM and the TGI (OVCAR-5 ovarian) was over 100 µM. The TGI (OVCAR-8 ovarian) was over 100 µM, the TGI (HOP-92 NSCLC) was 73.3 µM and the TGI (OVCAR-4 ovarian) was over 100 µM. For the same compound, the TGI (HT29 colon) was over 100 µM and the TGI (SN12C renal) was over 100 µM.

Compound `CCCNC(=S)/N=C\c1c(O)c2ccccc2oc1=O` has a TGI (IGROV1 ovarian) of over 100 µM, a TGI (CAKI-1 renal) of over 100 µM and a TGI (786-0 renal) of over 100 µM. The TGI (HCC-2998 colon) was over 100 µM, the TGI (CCRF-CEM leukemia) was over 100 µM and the TGI (SK-OV-3 ovarian) was over 100 µM. The TGI (NCI-H460 lung) was over 100 µM, the TGI (PC-3 prostate) was over 100 µM and the TGI (NCI/ADR-RES ovarian) was over 100 µM. For the same compound, the TGI (DU-145 prostate) was over 100 µM, the TGI (MDA-MB-231 breast) was over 100 µM and the TGI (A549 NSCLC) was over 100 µM. The TGI (SNB-75 CNS) was over 100 µM, the TGI (MDA-MB-435) was over 100 µM and the TGI (RXF 393 renal) was over 100 µM. It also gave a TGI (HOP-62 NSCLC) of over 100 µM, a TGI (MCF7 breast) of over 100 µM and a TGI (BT-549 breast) of over 100 µM. It also gave a TGI (KM12 colon) of over 100 µM, a TGI (A498 renal) of over 100 µM and a TGI (ACHN renal) of over 100 µM. It also gave a TGI (SF-539 CNS) of over 100 µM, a TGI (SK-MEL-28 melanoma) of over 100 µM and a TGI (M14 melanoma) of over 100 µM. For the same compound, the TGI (SNB-19 CNS) was over 100 µM, the TGI (HL-60(TB) leukemia) was over 100 µM and the TGI (UO-31 renal) was over 100 µM. It also gave a TGI (UACC-62 melanoma) of over 100 µM, a TGI (NCI-H522 lung) of over 100 µM and a TGI (SR leukemia) of over 100 µM. It also gave a TGI (SK-MEL-2 melanoma) of over 100 µM, a TGI (SF-295 CNS) of over 100 µM and a TGI (OVCAR-3 ovarian) of over 100 µM. It also gave a TGI (U251 CNS) of over 100 µM, a TGI (NCI-H226 lung) of over 100 µM and a TGI (EKVX NSCLC) of over 100 µM. It also gave a TGI (SW-620 colon) of over 100 µM, a TGI (HCT-116 colon) of over 100 µM and a TGI (MOLT-4 leukemia) of over 100 µM. The TGI (TK-10 renal) was over 100 µM, the TGI (NCI-H23 lung) was over 100 µM and the TGI (SK-MEL-5 melanoma) was over 100 µM. The TGI (COLO 205 colon) was over 100 µM, the TGI (HCT-15 colon) was over 100 µM and the TGI (MALME-3M melanoma) was over 100 µM. For the same compound, the TGI (HS 578T breast) was over 100 µM, the TGI (UACC-257 melanoma) was over 100 µM and the TGI (LOX IMVI melanoma) was over 100 µM. For the same compound, the TGI (MDA-N) was over 100 µM, the TGI (OVCAR-5 ovarian) was over 100 µM and the TGI (OVCAR-8 ovarian) was over 100 µM. For the same compound, the TGI (HOP-92 NSCLC) was over 100 µM, the TGI (SF-268 CNS) was over 100 µM and the TGI (OVCAR-4 ovarian) was over 100 µM. For the same compound, the TGI (HT29 colon) was over 100 µM and the TGI (SN12C renal) was over 100 µM.
